“Also recorded” adds a separate entry of the source.
Assays:
human TLR9 = target: T1, human TLR9 (Homo sapiens, UniProt Q9NR96); assay: IL-8 production by TLR9-transfected HEK293 cells; format: cell-based
T1 construct: expressed in transfected cells; host or cells: HEK293
T1 sequence (Q9NR96 26-1032): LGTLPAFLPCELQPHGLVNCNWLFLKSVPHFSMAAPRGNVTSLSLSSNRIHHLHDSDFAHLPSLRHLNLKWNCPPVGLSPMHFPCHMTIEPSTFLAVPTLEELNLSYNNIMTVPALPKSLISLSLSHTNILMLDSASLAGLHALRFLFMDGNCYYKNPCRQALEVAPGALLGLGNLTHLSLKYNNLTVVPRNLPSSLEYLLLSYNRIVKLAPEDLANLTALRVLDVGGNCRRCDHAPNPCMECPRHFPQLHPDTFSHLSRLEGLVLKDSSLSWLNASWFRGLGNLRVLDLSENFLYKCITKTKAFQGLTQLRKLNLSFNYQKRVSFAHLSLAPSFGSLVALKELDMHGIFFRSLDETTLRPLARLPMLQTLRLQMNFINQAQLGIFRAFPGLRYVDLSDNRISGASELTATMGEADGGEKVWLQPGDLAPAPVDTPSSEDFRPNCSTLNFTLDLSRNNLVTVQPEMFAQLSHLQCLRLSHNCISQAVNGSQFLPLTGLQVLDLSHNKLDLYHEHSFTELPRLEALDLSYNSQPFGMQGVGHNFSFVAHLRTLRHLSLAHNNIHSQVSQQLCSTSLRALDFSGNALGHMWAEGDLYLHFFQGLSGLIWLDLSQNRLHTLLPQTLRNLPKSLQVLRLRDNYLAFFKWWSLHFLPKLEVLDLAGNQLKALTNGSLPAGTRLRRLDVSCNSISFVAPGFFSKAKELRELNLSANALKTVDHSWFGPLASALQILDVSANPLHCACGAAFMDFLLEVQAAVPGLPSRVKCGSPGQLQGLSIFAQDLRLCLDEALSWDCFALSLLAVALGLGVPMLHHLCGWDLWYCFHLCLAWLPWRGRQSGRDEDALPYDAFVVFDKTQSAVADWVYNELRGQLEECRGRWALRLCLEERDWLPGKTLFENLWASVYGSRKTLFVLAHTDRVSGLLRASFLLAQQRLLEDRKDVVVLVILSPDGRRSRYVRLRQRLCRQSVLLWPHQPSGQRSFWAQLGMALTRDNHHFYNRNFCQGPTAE
Protocol: The human embryonic kidney cell line HEK293, wild type or stably transfected with human TLR2, TLR9 and TLR4/CD1427 were cultured in low glucose Dulbecco's modified Eagle's medium supplemented with 10% FCS, HEPES ([…]), L-glutamine ([…]), and gentamycin (50 microgram/ml). Transfectants were additionally supplemented with puromycin (100 microgram/ml). For stimulation experiments, cells were cultured at a density of 3 to 5×10^5 cells/wells in 12-well tissue culture plates overnight. Cells were washed and stimulated with 100 ng/ml TA1 either alone or together with TLR ligands for 5 h before the assessment of IL-8 production in the supernatants.
The levels of TNF-alpha, IL-10, IL-12 p70, IFN-alpha and IL-8 in culture supernatants were determined by Kit ELISAs. The detection limits (pg/ml) of the assays were <3 (human) and <32 (murine) for TNF-alpha, <12 (murine) and <5 (human) for IL-10, <16 (murine) and <3 (human) for IL-12 p70 and <25 (human) IL-8. For human IFN-alpha <3 ng/ml. For enumeration of cytokine-producing cells, an ELISPOT assay was used on purified CD4^+ T cells and DCs from lungs.

p38 and NF-kB = assay: Analysis of p38 and NF-kB activation on lung DCs; format: cell-based, murine; settings: peptide alone, 20 minutes
Protocol: P38 and NF-kB were activated on lung DCs by exposure for 20 minutes at 37° C. to Aspergillus conidia and/or 100 ng/ml TA1. Blots of cell lysates were incubated with rabbit polyclonal Abs recognizing either the unphosphorylated form of p38 MAPK, or the double-phosphorylated (Thr-180/Tyr-182) p38 MAPK, or Abs specific for the Rel A, 65 kDa DNA binding subunit of human NF-kB followed by horseradish peroxidase-conjugated goat anti-rabbit IgG, as per manufacturer's instructions. Blots were developed with an Enhanced Chemiluminescence detection kit. Bands were visualized after exposure of the blots to a Kodak RX film. To ensure similar protein loading in each lane, the phospho blots were stripped and the membranes were reprobed with Abs against p38 and NF-kB.

[1] = system: lymphocytes and neutrophils; assay: Myeloid and Th1 cell recovery in BMT mice with IA; format: in vivo
From the text: The treatments were as follows; in BMT-mice, TA1, at different doses administered intraperitoneally, sthymosin alpha 1, 400 microgram/kg administered intraperitoneally or human recombinant G-CSF 250 microgram/kg administered intravenously, were given daily beginning the day of the BM infusion, in concomitance with the infection and continuing for an additional 3 days. Amphotericin B was given daily for 3 days in concomitance with the infection, at a dose of 4000 microgram/kg, administered intraperitoneally. This dose would cure IA in cyclophosphamide-treated mice. Cyclophosphamide, 150 mg/kg administered intraperitoneally, was given a day before the infection. In cyclophosphamide-treated mice, 400 microgram/kg TA1 was given intraperitoneally for 5 consecutive days beginning the day of the infection. Cell surface phenotype was assessed by reacting samples with FITC- or PE-conjugated rat anti-mouse antibodies. Unrelated hisotype matched antibodies were used as control. The levels of TNF-alpha, IL-10, IL-12 p70, IFN-alpha and IL-8 in culture supernatants were determined by Kit ELISAs. The detection limits (pg/ml) of the assays were <3 (human) and <32 (murine) for TNF-alpha, <12 (murine) and <5 (human) for IL-10, <16 (murine) and <3 (human) for IL-12 p70 and <25 (human) IL-8. For human IFN-alpha <3 ng/ml. For enumeration of cytokine-producing cells, an ELISPOT assay was used on purified CD4^+ T cells and DCs from lungs. Proliferation of lung CD4^+ T lymphocytes stimulated with 10 microgram/ml Con A or heat inactivated conidia in the presence of lung DCs, was assessed by labeling with CFSE 5(6)-carboxyfluorescein diacetate succinimidyl ester.

Aspergillus conidia = assay: Antifungal effector activity (conidiocidal activity) of macrophages and neutrophils; format: cell-based; settings: TA1 treated mice
Protocol: […] In addition, the conidiocidal activity was assessed by determining the number of colony forming units and the percentage of colony forming units inhibition (mean±SE), referred to as conidiocidal activity.

[2] = BMT mice, cytofluorimetric analysis

Ac-Ser-Asp-Ala-Ala-Val-Asp-Thr-Ser-Ser-Glu-Ile-Thr-Thr-Lys-Asp-Leu-Lys-Glu-Lys-Lys-Glu-Val-Glu-Glu-Ala-Glu-Asn-O (Ac-SDAAVDTSSEITTKDLKEKKEVEEAEN-OH) [TA1, naturally occurring thymic peptide]
production of IL-8 (human TLR9; TA1 alone, 100 ng/ml, 5 h): directly activate; also recorded: significantly increased
production of IL-8 (human TLR9; in response to the TLR9 ligand CpG): significantly increased
p38 phosphorylation (p38 and NF-kB): induced
frequency of Th1 cells (producing IFN-gamma) ([1]; BMT mice treated with TA1): increased; also recorded: higher
frequency of Th2 cells (producing IL-4) ([1]; BMT mice treated with TA1): decreased; also recorded: lower
function of lung CD4+ T lymphocytes (antigen-specific proliferation and IFN-gamma production) ([1]; BMT mice treated with TA1): functionally active
number of lung CD4+ cells [1, 2]: increase; also recorded: significantly increased
number of lung CD8+ cells [1, 2]: increase; also recorded: significantly increased
number of lung neutrophils [1, 2]: significantly increased
total neutrophils ([1]; BMT mouse model, TA1 treatment after Aspergillus infection): increase
absolute number of circulating lymphocytes ([1]; after TA1 treatment): significantly increases
absolute number of circulating neutrophils ([1]; after TA1 treatment): significantly increases
conidiocidal activity of macrophages (Aspergillus conidia): higher
conidiocidal activity of neutrophils (Aspergillus conidia): higher

From patent publication US8389680B2, “Treatment of Aspergillus infections with alpha thymosin peptides” (SciClone Pharmaceuticals, Inc., priority 2003, dated 2013)
